Test: Activation of human alpha-9/rat alpha-10 nACHR expressed in Xenopus oocytes assessed as increase of acetylcholine-induced current
Type: cell-based
Conditions: Oocyte

With `CC(=O)OCC[N+](C)(C)C` [ACETYLCHOLINE] the EC50 was 50 µM.

— ChEMBL document CHEMBL1833824, “Effects of cyclization on stability, structure, and activity of α-conotoxin RgIA at the α9α10 nicotinic acetylcholine receptor and GABA(B) receptor” (J Med Chem, 2011)
